Results on three molecules are retold here after patent US6071884A, “Pharmaceutical compositions and therapeutic methods” (Kirin Beer Kabushiki Kaisha, priority 1992, dated 2000).

Assay [1] has as its system marrow cells (mononuclear cell fraction). Nature of the assay: Proliferation-stimulating effect on marrow cell of mouse (3H-TdR uptake). In kind it is cell-based, mouse (BALB/c). The settings on record: percentage of control, 72 h; for activity at 0.1 µg/mL: 10^-1 μg/ml; for activity at 0.01 µg/mL: 10^-2 μg/ml; for activity at 0.001 µg/mL: 10^-3 μg/ml. An outline of the steps: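 Mononuclear marrow cell fraction from 7-week-old female BALB/c mouse thigh bone, 1.5×10^6 cells/ml in 10% FCS RPMI 1640, cultured with test sample 72 h at 37° C. ³H-thymidine (0.5 μCi/well) then added for 8 h; nuclear ³H-TdR uptake counted by liquid scintillation.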

The test system of assay [2] is mononuclear cell fraction of human umbilical cord blood. Briefly: Proliferation-stimulating effect on mononuclear cell fraction of human umbilical cord blood (3H-TdR uptake). In kind it is cell-based. The settings on record: 96 h, percentage of control, 4 days; for activity at 0.1 µg/mL: 10^-1 μg/ml; for activity at 0.01 µg/mL: 10^-2 μg/ml; for activity at 0.001 µg/mL: 10^-3 μg/ml. The source says:
Pharmacological Test 3: Proliferation-Stimulating Effect on Mononuclear Cell Fraction of Human Umbilical Cord Blood
It is extremely difficult to obtain human marrow cells. In addition, human umbilical cord blood contains stem cells (Nakahata, T. & Ogwa, M., J. Clin. Inveet. 70, 1324-1328 (1982)), so that it can be a good source of hematopoietic stem/progenitor cell supply (H. E. Broxneyer et al, Proc. Natl. Acad. Sci. USA, 86, 3828-3832 (1989)). For these reasons, the effect on human was examined by using, instead of human marrow cells, human umbilical cord blood.
To human umbilical cord blood was added an equal amount of RPMI 1640. This was placed on a Lymphoprep and centrifugal. The mononuclear cell fraction (MNF) thus obtained was used in the following experiment.
The concentration of the MNF was adjusted to 1×10^6 cells/ml by using an RPMI 1640 added with 10% auto-blood plasma as a culture medium. 10 μl/well of a sample with a predetermined concentration and 100 μl/well of the above-prepared MNF were placed on a round-bottomed 96 well plate and incubated under the conditions of 37° C. and 5% CO2 for 4 days. Thereafter, 0.5 μCi/well of ^3 H-TdR was added. After 8 hour incubation, the cells were harvested, and the amount of the 3H-TdR taken in the nuclei was measured by a liquid scintillation counter.

Assay [3] can be described thus: Life-span-increasing effect on irradiation of a lethal dose of radiation. Format: in vivo, mouse (BDF1). The settings on record: 10 mice/group, 9 Gy X-ray, 0.1 mg/kg i.v. days 0, 4, 8. As for the experimental part: Pharmacological Test 4: Life-Span-Increasing Effect on Irradiation of a Lethal Dose of Radiation
An experiment was carried out by using 6 week old female BDF1 mice purchased from Japan SLC Co., Ltd., with 10 mice made one group.
The entire bodies of the entire body of the mice were irradiated with 9 Gy of X-rays by using a Hitachi X-ray irradiator (MBR-1520R), and the day on which the X-ray was irradiated was referred to as "day 0".

The subject of assay [4] is blood platelets. Nature of the assay: Thrombocytopenia-inhibiting effect in X-ray-irradiated mice. To be noted: 10 days after 5 Gy X-ray; 0.1 mg/kg i.v. within 2 h; mean ± SD; vehicle per series 10.3, 6.8, 6.7; non-treatment 68.2, 96.9, 73.0. In kind it is in vivo, mouse (BDF1). In a few lines:
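Female BDF1 mice, 6 weeks old, six per group, given 5 Gy whole-body X-ray, then 0.1 mg/kg i.v. via tail vein within 2 hours. Platelets counted by hemocytometer in fundus-vein blood 10 days later; untreated and vehicle groups run alongside.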

In assay [5] the test system is blood platelets. Nature of the assay: Blood-platelet-increasing effect upon normal mouse. In kind it is in vivo, mouse (BDF1). To be noted: normal mice; 6 days after 0.1 mg/kg i.v.; mean ± SD; vehicle per series 58.2, 63.0, 71.1. An outline of the steps:
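Female BDF1 mice, 6 weeks old (5 per group), received test sample at 0.1 mg/kg into the caudal vein. Six days later, fundus-vein blood was taken and platelets counted on a multi-channel hemocytometer, compared against vehicle-treated animals.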

Where [6] appears, read: day 10, controls per series 10, 10, 10, 10, 10, 8.
[7] abbreviates: day 15, controls per series 8, 9, 5, 5, 7, 1.
[8] abbreviates: day 20, controls per series 4, 5, 1, 2, 3, 0.
[9] abbreviates: day 25, controls per series 3, 3, 0, 0, 2, 0.
Where [10] appears, read: day 30, controls per series 1, 1, 0, 0, 0, 0.

For `CCCCCCCCCCCCCCCCCCCCCC[C@@H](O)C(=O)N[C@@H](CO[C@H]1O[C@H](CO)[C@H](O)[C@H](O)[C@H]1O)[C@H](O)[C@H](O)CCCCCCCCCCC` [Compound 23, (2S,3S,4R)-1-(α-D-galactopyranosyloxy)-2-[(R)-2-hydroxytetracosanoylamino]-3,4-pentadecanediol], in assay [1] (10^0 μg/ml), the activity at 1 µg/mL is 761%. The activity at 0.1 µg/mL in assay [1] worked out at 312%; in assay [2] it was 402%. Besides, the activity at 0.01 µg/mL in assay [1] amounted to 89%; in assay [2] it was 344%. Also, the activity at 0.001 µg/mL was 81% in assay [1] and 197% in assay [2]. The “Number of Surviving Mice” value in assay [3] (setting [6]) was 10 mice; in assay [3] (setting [7]) it was 10 mice; in assay [3] (setting [8]), 9 mice; in assay [3] (setting [9]), 9 mice; in assay [3] (setting [10]) it was 9 mice; in assay [3] (day 35, all controls 0) it was 9 mice. In addition, in assay [3] (day 40, all controls 0), the “Number of Surviving Mice” value is 9 mice. Moreover, the results for the “Number of Blood Platelets” value with blood platelets [4] and in the assay on blood platelets [5] were 21.0 ± 5.9 × 10^4 /μl and 108.7 ± 14.8 × 10^4 /μl, respectively.

Consider `CCCCCCCCCCCCCCCCCCCCCCCC[C@@H](O)C(=O)N[C@@H](CO[C@H]1O[C@H](CO)[C@H](O)[C@H](O)[C@H]1O)[C@H](O)[C@H](O)CCCCCCCCCCCCCCCC` [Compound 27, (2S,3S,4R)-1-(α-D-galactopyranosyloxy)-2-[(R)-2-hydroxyhexacosanoylamino]-3,4-icosanediol], for which the activity at 0.1 µg/mL in assay [1] was determined as 220%; in assay [2], 450%. Besides, the figures for the activity at 0.01 µg/mL in assay [1] and in assay [2] were 165% and 486%, respectively. In addition, the activity at 0.001 µg/mL was 156% in assay [1] and 344% in assay [2]. Moreover, the “Number of Surviving Mice” value worked out at 10 mice in assay [3] (setting [6]); 10 mice in assay [3] (setting [7]); 9 mice in assay [3] (setting [8]); 9 mice in assay [3] (setting [9]); 9 mice in assay [3] (setting [10]); 9 mice in assay [3] (day 35, all controls 0). Further, the “Number of Surviving Mice” value in assay [3] (day 40, all controls 0) is reported as 9 mice. For the same molecule, the “Number of Blood Platelets” value with blood platelets [4] is reported as 16.0 ± 4.1 × 10^4 /μl; in the assay on blood platelets [5], 101.3 ± 7.1 × 10^4 /μl.

For `CCCCCCCCCCCCCCCCCCCCCC[C@H](O)C(=O)N[C@@H](CO[C@H]1O[C@H](CO)[C@H](O)[C@H](O)[C@H]1O)[C@H](O)[C@H](O)CCCCCCCCCCCCC` [Compound 28, (2S,3S,4R)-1-(α-D-galactopyranosyloxy)-2-[(S)-2-hydroxytetracosanoylaminol]-3,4-heptadecanediol], the activity at 0.1 µg/mL came out at 192% in assay [1] and 356% in assay [2]. Moreover, the activity at 0.01 µg/mL in assay [1] was found to be 170%; in assay [2] it was 331%. Moreover, the activity at 0.001 µg/mL was 130% in assay [1] and 182% in assay [2]. Also, the “Number of Surviving Mice” value in assay [3] (setting [6]) was found to be 10 mice; in assay [3] (setting [7]), 10 mice; in assay [3] (setting [8]) it was 10 mice; in assay [3] (setting [9]), 8 mice; in assay [3] (setting [10]), 8 mice; in assay [3] (day 35, all controls 0) it was 8 mice. Moreover, the “Number of Surviving Mice” value in assay [3] (day 40, all controls 0) is reported as 8 mice. For the same molecule, the “Number of Blood Platelets” value was 20.4 ± 4.5 × 10^4 /μl in the assay with blood platelets [4] and 103.6 ± 8.8 × 10^4 /μl in the assay with blood platelets [5].
